In series [1] the target is T1, Ephrin type-B receptor 6 (Homo sapiens) (UniProt O15197).
T1 sequence (whole entry): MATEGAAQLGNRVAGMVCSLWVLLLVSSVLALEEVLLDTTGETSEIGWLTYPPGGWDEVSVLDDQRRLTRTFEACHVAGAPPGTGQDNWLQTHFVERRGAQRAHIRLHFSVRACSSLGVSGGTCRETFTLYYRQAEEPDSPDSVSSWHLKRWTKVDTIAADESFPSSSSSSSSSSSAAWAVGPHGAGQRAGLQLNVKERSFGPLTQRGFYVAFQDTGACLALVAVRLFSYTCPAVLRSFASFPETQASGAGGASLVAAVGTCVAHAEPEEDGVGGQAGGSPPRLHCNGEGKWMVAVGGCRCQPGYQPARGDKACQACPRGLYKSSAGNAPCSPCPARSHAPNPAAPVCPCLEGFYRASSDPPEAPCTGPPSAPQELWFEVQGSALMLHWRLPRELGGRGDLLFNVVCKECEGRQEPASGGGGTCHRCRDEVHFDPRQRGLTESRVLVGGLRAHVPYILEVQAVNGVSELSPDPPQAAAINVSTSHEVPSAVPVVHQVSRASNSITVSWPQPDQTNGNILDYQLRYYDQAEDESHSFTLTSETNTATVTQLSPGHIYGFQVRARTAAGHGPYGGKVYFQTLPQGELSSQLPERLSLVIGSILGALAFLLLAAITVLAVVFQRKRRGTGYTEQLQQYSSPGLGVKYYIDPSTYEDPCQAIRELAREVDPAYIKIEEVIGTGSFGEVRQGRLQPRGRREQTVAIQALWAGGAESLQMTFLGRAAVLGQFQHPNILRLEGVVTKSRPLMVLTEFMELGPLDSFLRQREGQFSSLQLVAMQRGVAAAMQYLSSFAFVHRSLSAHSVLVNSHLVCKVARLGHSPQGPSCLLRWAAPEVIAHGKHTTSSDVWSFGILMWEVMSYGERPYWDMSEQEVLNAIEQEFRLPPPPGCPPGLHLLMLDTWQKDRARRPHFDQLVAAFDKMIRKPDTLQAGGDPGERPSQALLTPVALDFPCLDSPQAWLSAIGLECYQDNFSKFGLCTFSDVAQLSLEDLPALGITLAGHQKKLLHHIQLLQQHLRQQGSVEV
Kind of series: (§1) Displacement of biotinylated ephrin-B1-Fc from EphB6 (unknown origin) preincubated for 1 hr followed by biotinylated-ephrin-B1-Fc addition measured after 4 hrs by ELISA. For orientation: ELISA stands for enzyme-linked immunosorbent assay.

In the next series the target is T2, Ephrin type-B receptor 6 (Homo sapiens, UniProt O15197).
T2 sequence (O15197 whole entry): T1 sequence (whole entry)
The series is described as §1.

Series [2] can be described thus: Metabolic stability in mouse plasma assessed as compound remaining at 1 uM after 24 hrs by HPLC-ESI-MS/MS analysis. Format: ADME, cell-free. The conditions noted are these: read-out: Stability.
The target in series [3] is T3, Nuclear receptor subfamily 1 group I member 2 (Homo sapiens, UniProt O75469).
T3 sequence (O75469 whole entry): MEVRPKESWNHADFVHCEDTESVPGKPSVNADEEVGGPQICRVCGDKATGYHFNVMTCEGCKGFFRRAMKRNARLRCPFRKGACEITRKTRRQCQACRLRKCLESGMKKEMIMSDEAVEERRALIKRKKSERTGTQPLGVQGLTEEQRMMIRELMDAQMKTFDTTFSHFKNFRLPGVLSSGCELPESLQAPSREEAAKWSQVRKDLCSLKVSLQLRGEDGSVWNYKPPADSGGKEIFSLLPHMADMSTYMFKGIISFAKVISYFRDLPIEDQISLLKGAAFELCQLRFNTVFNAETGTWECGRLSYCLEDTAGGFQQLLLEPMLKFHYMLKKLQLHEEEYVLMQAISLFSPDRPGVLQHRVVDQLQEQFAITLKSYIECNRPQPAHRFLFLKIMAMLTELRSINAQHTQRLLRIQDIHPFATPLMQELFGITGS
Kind of series: Activation of human recombinant PXR up to 10 uM by alphascreen method.

For series [4], the target named is T4, Ephrin type-B receptor 4 (Homo sapiens) (UniProt P54760).
T4 sequence (whole entry): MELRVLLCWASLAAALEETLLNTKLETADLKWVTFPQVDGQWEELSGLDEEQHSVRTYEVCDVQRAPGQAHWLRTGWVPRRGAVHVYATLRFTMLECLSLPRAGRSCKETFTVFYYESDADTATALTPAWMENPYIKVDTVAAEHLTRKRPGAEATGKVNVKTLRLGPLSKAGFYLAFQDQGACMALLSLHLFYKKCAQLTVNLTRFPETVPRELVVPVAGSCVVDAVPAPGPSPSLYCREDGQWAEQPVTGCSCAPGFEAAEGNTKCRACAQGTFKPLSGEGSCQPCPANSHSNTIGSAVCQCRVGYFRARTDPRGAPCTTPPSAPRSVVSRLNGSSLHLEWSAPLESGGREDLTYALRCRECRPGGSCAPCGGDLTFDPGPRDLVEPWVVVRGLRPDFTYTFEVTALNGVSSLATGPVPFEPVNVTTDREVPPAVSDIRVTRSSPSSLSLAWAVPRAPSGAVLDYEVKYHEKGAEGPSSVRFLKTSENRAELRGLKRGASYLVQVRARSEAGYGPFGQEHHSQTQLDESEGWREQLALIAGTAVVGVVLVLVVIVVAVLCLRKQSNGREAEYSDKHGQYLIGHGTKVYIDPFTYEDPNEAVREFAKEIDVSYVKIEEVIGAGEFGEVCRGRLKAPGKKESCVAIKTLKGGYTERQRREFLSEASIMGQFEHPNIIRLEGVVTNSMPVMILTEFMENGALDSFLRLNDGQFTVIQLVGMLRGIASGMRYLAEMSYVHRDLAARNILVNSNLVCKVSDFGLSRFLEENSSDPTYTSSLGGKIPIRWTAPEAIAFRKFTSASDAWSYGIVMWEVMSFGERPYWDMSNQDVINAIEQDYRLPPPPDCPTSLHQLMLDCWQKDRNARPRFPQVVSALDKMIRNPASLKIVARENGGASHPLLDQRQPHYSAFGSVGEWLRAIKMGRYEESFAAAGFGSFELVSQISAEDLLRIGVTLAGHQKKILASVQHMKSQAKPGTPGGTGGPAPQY
Kind of series: Displacement of biotinylated ephrin-B1-Fc from EphB4 (unknown origin) preincubated for 1 hr followed by biotinylated-ephrin-B1-Fc addition measured after 4 hrs by ELISA.

Regarding `C[C@H](CCC(=O)N[C@@H](Cc1c[nH]c2ccccc12)C(=O)O)[C@H]1CC[C@H]2[C@@H]3CC=C4C[C@@H](O)CC[C@]4(C)[C@H]3CC[C@]12C`, the inhibition entry in series [1] and in series [4] was “Dose-dependent effect” each time. Moreover, on Ephrin type-B receptor 6, the 50% inhibitory concentration (IC50) (usually the concentration at which inhibition is half-maximal) came out at 3.3 µM. Moreover, the remaining at 24 h, 1 µM in series [2] was found to be 95.8%. Moreover, in series [3], the Activity result is reported as “Not Active”.
